Drawing on BindingDB's records for doi:10.1021/jm0101390 (Harvard Medical School, 2001), this text covers IC50 for 27 compounds.

pIC50: −log10 of the molar value.

The experiment concerns the target Aldehyde dehydrogenase, mitochondrial (Mesocricetus auratus). As to the kind of experiment: Inhibition of hamster liver aldehyde dehydrogenase ALDH-2.

As a reminder, the pIC50 is the IC50 on a negative log10 scale, so that one unit is a factor of ten.

Compound `O=C(O)CCCCCCCOc1ccc2c(=O)c(-c3ccc(O)cc3)coc2c1` [8-(3-(4-hydroxyphenyl)-4-oxo-4H-chromen-7-yloxy)octanoic acid] gave a negative logarithm of the IC50 (pIC50) of 7.40.

In turn, `O=C(O)CCCCCCCCCOc1ccc2c(=O)c(-c3ccc(O)cc3)coc2c1` [10-(3-(4-hydroxyphenyl)-4-oxo-4H-chromen-7-yloxy)decanoic acid] gave a pIC50 of 7.30.

The compound `CCOC(=O)CCCCCOc1ccc2c(=O)c(-c3ccc(O)cc3)coc2c1` [6-[3-(4-Hydroxy-phenyl)-4-oxo-4H-chromen-7-yloxy]-hexanoic acid ethyl ester] gave a pIC50 of 6.55.

In turn, `O=c1c(-c2ccc(O)cc2)coc2cc(OCCCCCCO)ccc12` [7-(6-Hydroxy-hexyloxy)-3-(4-hydroxy-phenyl)-chromen-4-one] gave a pIC50 of 6.92.

Regarding `CCCCCCOc1ccc2c(=O)c(-c3ccc(O)cc3)coc2c1` [7-Hexyloxy-3-(4-hydroxyphenyl)chromen-4-one], the pIC50 is 5.82.

For the compound `CCCCCCC(Oc1ccc2c(=O)c(-c3ccc(O)cc3)coc2c1)C(=O)O` (configuration not stated) [2-[3-(4-Hydroxy-phenyl)-4-oxo-4H-chromen-7-yloxy]-octanoic acid], the pIC50 is 5.70.

In the case of `O=C(O)CCCCOc1ccc2c(=O)c(-c3ccc(O)cc3)coc2c1` [5-[3-(4-Hydroxy-phenyl)-4-oxo-4H-chromen-7-yloxy]-pentanoic acid], the pIC50 is 7.00.

Regarding `CC(Oc1ccc2c(=O)c(-c3ccc(O)cc3)coc2c1)C(=O)O` (configuration not stated) [2-[3-(4-Hydroxy-phenyl)-4-oxo-4H-chromen-7-yloxy]-propionic acid], the pIC50 is 5.60.

For the compound `O=C(O)COc1ccc2c(=O)c(-c3ccc(O)cc3)coc2c1` [2-(3-(4-hydroxyphenyl)-4-oxo-4H-chromen-7-yloxy)acetic acid], the pIC50 is 5.92.

Compound `CCCCC(Oc1ccc2c(=O)c(-c3ccc(O)cc3)coc2c1)C(=O)OCC` (configuration not stated) [2-[3-(4-Hydroxy-phenyl)-4-oxo-4H-chromen-7-yloxy]-hexanoic acid ethyl ester] showed a negative logarithm of the IC50 (pIC50) of 5.35.

The compound `C=CCCCCOc1ccc2c(=O)c(-c3ccc(O)cc3)coc2c1` [7-Hex-5-enyloxy-3-(4-hydroxy-phenyl)-chromen-4-one] had a pIC50 of 6.82.

In turn, `O=c1c(-c2ccc(O)cc2)coc2cc(OCCCCCCCCCO)ccc12` [7-(9-Hydroxy-nonyloxy)-3-(4-hydroxy-phenyl)-chromen-4-one] gave a pIC50 of 6.15.

As to `CC1=C(c2ccccc2)C(=O)OC2CC(Cl)CCC12` (configuration not stated) [7-Chloro-4-methyl-3-phenyl-4a,5,6,7,8,8a-hexahydro-chromen-2-one], the pIC50 is 6.82.

The compound `O=c1c(-c2ccc(O)cc2)coc2cc(OCCOCCOCCO)ccc12` [7-(2-(2-(2-hydroxyethoxy)ethoxy)ethoxy)-3-(4-hydroxyphenyl)-4H-chromen-4-one] showed a pIC50 of 7.40.

With `O=C(O)CCCCCCOc1ccc2c(=O)c(-c3ccc(O)cc3)coc2c1` [7-[3-(4-Hydroxy-phenyl)-4-oxo-4H-chromen-7-yloxy]-heptanoic acid], the pIC50 is 7.30.

As to `CCOC(=O)COc1ccc2c(=O)c(-c3ccc(O)cc3)coc2c1` [[3-(4-Hydroxy-phenyl)-4-oxo-4H-chromen-7-yloxy]-acetic acid ethyl ester], the negative logarithm of the IC50 (pIC50) is 6.89.

Turning to `CCCCCCC(Oc1ccc2c(=O)c(-c3ccc(O)cc3)coc2c1)C(=O)OCC` (configuration not stated) [2-[3-(4-Hydroxy-phenyl)-4-oxo-4H-chromen-7-yloxy]-octanoic acid ethyl ester], the pIC50 is 5.14.

For the compound `O=c1c(-c2ccc(O)cc2)coc2cc(OCCCCCCCCCCCCO)ccc12` [7-(12-Hydroxy-dodecyloxy)-3-(4-hydroxy-phenyl)-chromen-4-one], the pIC50 was 5.77.

Compound `CCOc1ccc2c(=O)c(-c3ccc(O)cc3)coc2c1` [7-Ethoxy-3-(4-hydroxy-phenyl)-chromen-4-one] gave a pIC50 of 7.10.

Regarding `CCCCCCCCCCCCOc1ccc2c(=O)c(-c3ccc(O)cc3)coc2c1` [7-(dodecyloxy)-3-(4-hydroxyphenyl)-4H-chromen-4-one], the pIC50 was < 5.05.

Take `NCCCCCCOc1ccc2c(=O)c(-c3ccc(O)cc3)coc2c1` [7-(6-Amino-hexyloxy)-3-(4-hydroxy-phenyl)-chromen-4-one]: the negative logarithm of the IC50 (pIC50) is 7.00.

`C=CCOc1ccc2c(=O)c(-c3ccc(O)cc3)coc2c1` [7-Allyloxy-3-(4-hydroxy-phenyl)-chromen-4-one]: the pIC50 is 6.74.

For the compound `CC(C)Oc1ccc2c(=O)c(-c3ccc(O)cc3)coc2c1` [3-(4-Hydroxy-phenyl)-7-isopropoxy-chromen-4-one], the pIC50 was 7.10.

`O=C(O)CCCCCCCCCCCOc1ccc2c(=O)c(-c3ccc(O)cc3)coc2c1` [12-(3-(4-hydroxyphenyl)-4-oxo-4H-chromen-7-yloxy)dodecanoic acid] showed a pIC50 of 6.89.

As for `NCCCCOc1ccc2c(=O)c(-c3ccc(O)cc3)coc2c1` [7-(4-Amino-butoxy)-3-(4-hydroxy-phenyl)-chromen-4-one], the pIC50 is 6.60.

Consider `CCOC(=O)CCCCOc1ccc2c(=O)c(-c3ccc(O)cc3)coc2c1` [5-[3-(4-Hydroxy-phenyl)-4-oxo-4H-chromen-7-yloxy]-pentanoic acid ethyl ester], for which the pIC50 was 6.62.

On to `O=C(O)CCCCCCCCCCCCCCCOc1ccc2c(=O)c(-c3ccc(O)cc3)coc2c1` [16-[3-(4-Hydroxy-phenyl)-4-oxo-4H-chromen-7-yloxy]-hexadecanoic acid], for which the pIC50 is < 5.05.
